Test results as given in patent publication US4906661A, “Esters of aryloxypropanolamine derivatives” (E. I. Du Pont de Nemours and Company, priority 1989, dated 1990).

Tests used:
Format in all cases: in vitro ADME
[1] = Enzymatic hydrolysis by dog blood (procedure C); conditions: 37° C.; for remaining at 1 h: read-out: % Drug remaining, 1 HR, dog blood; for remaining at 2 h: read-out: % Drug remaining, 2 HR, dog blood
Method: Chemicals--Acetonitrile was "HPLC" grade. Distilled water was used to dissolve the compounds and 0.01 N HCl was used to dissolve compounds requiring an acidic pH for dissolution.
Enzyme Source--Fresh aqueous humor was collected from eyes of dogs using a 23-gauge needle while fresh dog blood was collected into heparinized Vacutainer tubes. Fresh liver was homogenized in 0.9% NaCl using a Potter-Elvehjem Teflon pestle and glass homogenizer to make a 25% (W/V) homogenate.
Incubation Condition--A 0.5 ml aliquot of dog aqueous humor, blood, or liver homogenate was incubated with 12.5 μg (0.5 ml) of β-blocker in a Dubnoff shaking metabolic incubator at 37° C. for 60 and 120 min. Denatured tissue controls were prepared by adding 2.0 ml of acetonitrile into 0.5 ml of aqueous humor, blood, or liver homogenate to destroy esterase activities prior to addition of the β-blockers. These controls were then incubated at 37° C. for 120 min. After 60 and 120 min, the incubations were terminated by addition of 2 ml of acetonitrile and immediately mixed by a Vortex.cndot. to stop esterase activities.
Sample Processing and Data Analyses--All samples were centrifuged at 4000 RPM for 10 min to sediment denatured proteins. The resultant supernatants were transferred to WISP.cndot. vials and analyzed using an HPLC assay developed for beta blockers. The hydrolysis of β-blockers by aqueous humor, blood, and liver homogenate was determined by disappearance of the compounds. The extent of enzymatic hydrolysis by each tissue was determined by comparing the amount of each compound (absolute peak area) recovered at each time point to the amount of each compound (absolute peak area) in denatured tissue control and aqueous control samples.

[2] = Enzymatic hydrolysis by dog aqueous humor (procedure C); conditions: for remaining at 1 h / remaining at 2 h: 37° C., procedure C; for remaining at 1 h: read-out: % Drug remaining, 1 HR, dog aqueous humor; for remaining at 2 h: read-out: % Drug remaining, 2 HR, dog aqueous humor; for half-life: approximate value, determined by procedure C, read-out: T1/2 dog aqueous humor; for metabolised at 2 h: two hours, read-out: hydrolyzed in aqueous humor after two hours
Description: Chemicals--Acetonitrile was "HPLC" grade. Distilled water was used to dissolve the compounds and 0.01 N HCl was used to dissolve compounds requiring an acidic pH for dissolution. Enzyme Source--Fresh aqueous humor was collected from eyes of dogs using a 23-gauge needle while fresh dog blood was collected into heparinized Vacutainer tubes. Fresh liver was homogenized in 0.9% NaCl using a Potter-Elvehjem Teflon pestle and glass homogenizer to make a 25% (W/V) homogenate. […] Denatured tissue controls were prepared by adding 2.0 ml of acetonitrile into 0.5 ml of aqueous humor, blood, or liver homogenate to destroy esterase activities prior to addition of the β-blockers. These controls were then incubated at 37° C. for 120 min. […] Sample Processing and Data Analyses--All samples were centrifuged at 4000 RPM for 10 min to sediment denatured proteins. The resultant supernatants were transferred to WISP.cndot. vials and analyzed using an HPLC assay developed for beta blockers. The hydrolysis of β-blockers by aqueous humor, blood, and liver homogenate was determined by disappearance of the compounds. The extent of enzymatic hydrolysis by each tissue was determined by comparing the amount of each compound (absolute peak area) recovered at each time point to the amount of each compound (absolute peak area) in denatured tissue control and aqueous control samples.

[3] = Half-life in dog whole blood (procedure D); conditions: 37° C., read-out: T1/2 dog blood
Method: (§1) In each experiment, 1 ml of a solution containing 50 μg of the test compound was added to 1 ml of whole blood or 1 ml of a 33% (w/v) liver homogenate. The samples were incubated in a Dubnoff shaking metabolic incubator for 2.5, 5.0, 10.0, 20.0, 30.0 and 60.0 minutes at 37° C. At the designated time periods, the test mixtures were removed from the incubator and transferred to a 0° C. ice bath. Acetonitrile (2 ml) was immediately added and the mixtures were mixed to stop enzymatic hydrolysis. Zero time samples were prepared by adding 2 ml of acetonitrile to denature the proteins prior to addition of the test compounds. After centrifugation to sediment denatured proteins, 2 ml of the supernatant was removed and analyzed by high pressure liquid chromatography, using a mobile phase of 60% acetonitrile/40% 0.05 M sodium phosphate buffer (pH 6.6), a U.V. detector and Waters μ Bondapak Phenyl column.
(§2) The half life of each test compound was determined graphically by plotting the decrease in concentrations as a function of time.

[4] = Half-life in dog liver homogenate (procedure D); conditions: 37° C., read-out: T1/2 dog liver homogenate
Method: as §1, §2

Compound	remaining at 1 h [1] [%]	remaining at 2 h [1] [%]	remaining at 1 h [2] [%]	remaining at 2 h [2] [%]	half-life [2] [h]	metabolised at 2 h [2] [%]	half-life [3] [h]	half-life [4] [h]	metabolised at 1 h ([2]; one hour, read-out: hydrolyzed in aqueous humor after one hour) [%]
COC(=O)c1ccccc1OCC(O)CNCCNC(C)=O (stereo not drawn) [Example I, Methyl 2-[2-Hydroxy-3-[N-2(-acetamidoethyl)amino]propoxy]benzoate]	54	47	93	93	> 2	7	1.03 ± 0.133	2.78	–
COC(=O)c1ccccc1OCC(O)CNCCNC(=O)C(C)C (stereo not drawn) [II, Methyl 2-[2-Hydroxy-3-[N-[2-(2-methylpropionamido)ethyl]amino]propoxy]benzoate]	41	16	94	91	> 2	–	1.03 ± 0.05	> 3	–
COC(=O)c1ccccc1OCC(O)CNCCNC(=O)Cc1ccccc1 (stereo not drawn) [III, Methyl 2-[2-Hydroxy-3-[N-[2-(phenylacetamido)ethyl]amino]propoxy]benzoate]	53	23	100	98	> 2	2	1.22 ± 0.267	2.15	0
